Where two headings read alike, the source gives them in different places.
Molecular target: T1, Nanoluciferase-BRD9 fusion protein (3×FLAG-NLuc-BRD9) in SYO-1 cells (Homo sapiens, UniProt Q9H8M2)
T1 construct: expressed in transfected cells; host or cells: SYO-1
T1 sequence (Q9H8M2 1-597): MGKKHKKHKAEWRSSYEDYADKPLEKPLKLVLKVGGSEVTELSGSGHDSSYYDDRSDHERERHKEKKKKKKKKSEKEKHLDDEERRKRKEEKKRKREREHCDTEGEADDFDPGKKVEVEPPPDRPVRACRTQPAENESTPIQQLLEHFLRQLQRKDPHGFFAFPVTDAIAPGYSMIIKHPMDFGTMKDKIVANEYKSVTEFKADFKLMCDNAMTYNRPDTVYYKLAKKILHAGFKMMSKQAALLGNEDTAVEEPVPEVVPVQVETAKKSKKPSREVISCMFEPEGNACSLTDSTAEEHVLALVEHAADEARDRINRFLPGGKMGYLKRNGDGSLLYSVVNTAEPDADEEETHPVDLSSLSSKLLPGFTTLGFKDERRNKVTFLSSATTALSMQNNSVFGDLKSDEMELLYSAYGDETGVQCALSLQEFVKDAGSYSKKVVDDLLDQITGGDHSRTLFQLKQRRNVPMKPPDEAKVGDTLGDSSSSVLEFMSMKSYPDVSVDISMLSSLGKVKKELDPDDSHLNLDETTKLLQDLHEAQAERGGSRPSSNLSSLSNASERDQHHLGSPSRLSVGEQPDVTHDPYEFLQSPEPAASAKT
Test: SYO1 BRD9 NanoLuc Degradation Assay
Format: cell-based
Settings: SYO-1 cells expressing 3×FLAG-NLuc-BRD9, 6 hours incubation, 1 μM top dose, read-out: SYO1 BRD9-NanoLuc degradation IC50
Summary of the method: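 Stable 3×FLAG-NLuc-BRD9 SYO-1 line, 8000 cells/well, dosed day 1 with 10-point 3-fold dilutions (1 μM final top, duplicates) for 6 h. NanoLuc bioluminescence read with Nano-Glo; % inhibition relative to DMSO (high) and 1 μM reference BRD9 degrader (low) controls.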

SMILES	DC50 (Table 6B) [µM]	DC50 (Table 6C) [µM]
COc1cc(-c2cn(C)c(=O)c3cnc(N(C)C)cc23)cc(OC)c1CN1CCC(n2cc([C@H](C)Oc3ccc4c(c3)C(=O)N(C3CCC(=O)NC3=O)C4=O)nn2)CC1 (stereo partly drawn) [Compound D87]	< 0.01	–
COc1cc(-c2cn(C)c(=O)c3cnc(N(C)C)cc23)cc(OC)c1CN1CCC2(CC1)CN(c1ccc3c(c1)C(=O)N(C1CCC(=O)NC1=O)C3)C2 (stereo not drawn) [Compound D128]	< 0.01	–
COc1cc(-c2cn(C)c(=O)c3cnc(N(C)C)cc23)cc(OC)c1CN1CCN(c2ccc3c(c2)C(=O)N(C2CCC(=O)NC2=O)C3=O)CC1 (stereo not drawn) [Compound D70]	< 0.01	–
COc1cc(-c2cn(C)c(=O)c3cnc(N(C)C)cc23)cc(OC)c1CN(C)c1ccc2c(c1)CN(C1CCC(=O)NC1=O)C2=O (stereo not drawn) [Compound D277]	–	< 0.01
COc1cc(-c2cn(C)c(=O)c3cnc(C4CC4)cc23)cc(OC)c1CN1CC(C#Cc2ccc3c(c2)CN(C2CCC(=O)NC2=O)C3=O)C1 (stereo not drawn) [Compound D271]	–	< 0.01
COc1cc(-c2cn(C)c(=O)c3cnc(N4CCC4)cc23)cc(OC)c1CN1CCC(CN2CCC3(CC2)CC(Oc2ccc4c(c2)C(=O)N(C2CCC(=O)NC2=O)C4=O)C3)CC1 (stereo not drawn) [Compound D80]	< 0.01	–
COc1cc(-c2cn(C)c(=O)c3cnc(N4CC5(CC5)C4)cc23)cc(OC)c1CN1CC(CN2CCC3(CC2)CN(c2ccc4c(c2)C(=O)N(C2CCC(=O)NC2=O)C4)C3)C1 (stereo not drawn) [Compound D201]	–	< 0.01
COc1cc(-c2nn(C)c(=O)c3cnc(N4CCC4)cc23)cc(OC)c1CN1CCC(CN2CCC3(CC2)CC(Oc2ccc4c(c2)C(=O)N(C2CCC(=O)NC2=O)C4)C3)CC1 (stereo not drawn) [Compound D191]	–	0.1 to 1
COc1cc(-c2cn(C)c(=O)c3cnc(N(C)C)cc23)c(OC)cc1CN1CCN(CCC2CCN(c3ccc4c(c3)C(=O)N(C3CCC(=O)NC3=O)C4=O)CC2)CC1 (stereo not drawn) [Compound D145]	< 0.01	–
COc1cc(-c2cn(C)c(=O)c3cnc(N(C)C)cc23)cc(OC)c1CN(C)CC12CC(C(=O)NCCCCCOc3ccc4c(c3)C(=O)N(C3CCC(=O)NC3=O)C4=O)(C1)C2 (stereo not drawn) [Compound D38]	< 0.01	–
[2H]C([2H])([2H])n1cc(-c2cc(OC)c(CN3CCN(CCC4CCN(c5ccc6c(c5)CN(C5CCC(=O)NC5=O)C6=O)CC4)CC3)c(OC)c2)c2cc(N(C)C)ncc2c1=O (stereo not drawn) [Compound D223]	–	< 0.01
COc1cc(-c2cn(C)c(=O)c3cnc(N4CCC4)cc23)cc(OC)c1CN1[C@H](C)CN(CCC2CCN(c3ccc4c(c3)C(=O)N(C3CCC(=O)NC3=O)C4=O)CC2)C[C@H]1C (stereo partly drawn) [Compound D222]	–	< 0.01
COc1cc2c(-c3cc(OC)c(CN4CCC(c5ccc6c(c5)C(=O)N(C5CCC(=O)NC5=O)C6)CC4)c(OC)c3)cn(C)c(=O)c2cn1 (stereo not drawn) [Compound D288]	–	< 0.01
[2H]C([2H])([2H])n1cc(-c2cc(OC)c(CN3CC(Oc4ccc5c(c4)C(=O)N(C4CCC(=O)NC4=O)C5)C3)c(OC)c2)c2cc(OC)ncc2c1=O (stereo not drawn) [Compound D239]	–	< 0.01
COc1cc(-c2cn(C)c(=O)c3cnc(C4CC4)cc23)cc(OC)c1CN1CC(CN2CCC3(CC2)CN(c2ccc4c(c2)C(=O)N(C2CCC(=O)NC2=O)C4=O)C3)C1 (stereo not drawn) [Compound D303]	–	< 0.01
COc1cc(-c2cn(C)c(=O)c3cnc(N(C)C)cc23)cc(Cl)c1CN1CCC(CN2CCC3(CC2)CC(Oc2ccc4c(c2)C(=O)N(C2CCC(=O)NC2=O)C4=O)C3)CC1 (stereo not drawn) [Compound D101]	< 0.01	–
COc1cc2c(-c3cc(OC)c(CN4[C@H](C)CN(c5ccc6c(c5)C(=O)N(C5CCC(=O)NC5=O)C6)C[C@H]4C)c(OC)c3)cn(C)c(=O)c2cn1 (stereo partly drawn) [Compound D281]	–	< 0.01
COc1cc(-c2cn(C)c(=O)c3cnc(N4CCC4)cc23)cc(OC)c1CN1CC(CN2CCC3(CC2)CN(c2ccc4c(c2)C(=O)N(C2CCC(=O)N(C)C2=O)C4)C3)C1 (stereo not drawn) [Compound D259]	–	≥ 1

SMILES	DC50 (Table 6B) [µM]	DC50 (Table 6C) [µM]
COc1cc(-c2cn(C)c(=O)c3cnc(N(C)C)cc23)cc(OC)c1CN1CC(N2CCN(C3CCC(=O)NC3=O)C(=O)C2)C1 (stereo not drawn) [Compound D94]	0.01 to 0.1	–
COc1cc(-c2cn(C)c(=O)c3cnc(N4CCC4)cc23)cc(OC)c1CN1CC(N2CCC(c3ccc4c(c3)CN(C3CCC(=O)NC3=O)C4=O)CC2)C1 (stereo not drawn) [Compound D177]	< 0.01	–
CNc1cc2c(=O)n(C)cc(-c3cc(OC)c(CN(C)CC45CC(C(=O)NCCCCCOc6ccc7c(c6)C(=O)N(C6CCC(=O)NC6=O)C7=O)(C4)C5)c(OC)c3)c2cn1 (stereo not drawn) [Compound D173]	< 0.01	–
COc1cc(-c2cn(C)c(=O)c3cnc(N4CCC4)cc23)cc(OC)c1CN1CC(Oc2ccc3c(c2)C(=O)N(C2CCC(=O)NC2=O)C3=O)C1 (stereo not drawn) [Compound D137]	< 0.01	–
COc1cc(-c2cn(C)c(=O)c3cnc(N4CCC4)cc23)cc(OC)c1C1CCN(c2ccc3c(c2)C(=O)N(C2CCC(=O)NC2=O)C3)CC1 (stereo not drawn) [Compound D294]	–	< 0.01
CCc1cc(-c2cn(C)c(=O)c3cnc(N(C)C)cc23)cc(Cl)c1CN1CCC(CN2CCC3(CC2)CC(Oc2ccc4c(c2)C(=O)N(C2CCC(=O)NC2=O)C4=O)C3)CC1 (stereo not drawn) [Compound D140]	< 0.01	–
COc1cc(-c2cn(C)c(=O)c3cnc(N4CC(F)(F)C4)cc23)cc(OC)c1CN1CCC(CN2CCC3(CC2)CN(c2ccc4c(c2)C(=O)N(C2CCC(=O)NC2=O)C4)C3)CC1 (stereo not drawn) [Compound D291]	–	< 0.01
COc1cc(-c2cn(C)c(=O)c3cnc(N4CCOCC4)cc23)c(OC)cc1CN1CC(CN2CCC3(CC2)CN(c2ccc4c(c2)C(=O)N(C2CCC(=O)NC2=O)C4)C3)C1 (stereo not drawn) [Compound D147]	< 0.01	–
COc1cc(-c2cn(C)c(=O)c3cnc(N4CC(C)(OC)C4)cc23)cc(OC)c1CN1CC(CN2CCC3(CC2)CN(c2ccc4c(c2)C(=O)N(C2CCC(=O)NC2=O)C4)C3)C1 (stereo not drawn) [Compound D210]	–	< 0.01
COc1cc(-c2cn(C)c(=O)c3cnc(N(C)C)cc23)cc(OC)c1CN1CCN(c2cnn(C3CCC(=O)NC3=O)c2)CC1 (stereo not drawn) [Compound D270]	–	0.01 to 0.1
COc1cc(-c2cn(C)c(=O)c3cnc(N(C)C)cc23)cc(OC)c1CN1CCC(C(N2CCC3(CC2)CC(Oc2ccc4c(c2)C(=O)N(C2CCC(=O)NC2=O)C4=O)C3)C(F)(F)F)CC1 (stereo not drawn) [Compound D99]	< 0.01	–
COc1cc(-c2cn(C)c(=O)c3cnc(N(C)C)cc23)cc(OC)c1CN1CCC(C[N+]2(C)CCC3(CC2)CC(Oc2ccc4c(c2)C(=O)N(C2CCC(=O)NC2=O)C4=O)C3)CC1 (stereo not drawn) [Compound D84]	0.01 to 0.1	–
COc1cc(-c2cn(C)c(=O)c3ccc(N4CCC4)cc23)cc(OC)c1CN1CCC(N2CCC(c3ccc4c(c3)CN(C3CCC(=O)NC3=O)C4=O)CC2)CC1 (stereo not drawn) [Compound D183]	≥ 1	–
COc1cc(-c2cn(C)c(=O)c3cnc(N(C)C)cc23)cc(OC)c1CN1CCC(CN2CCC3(CC2)CC(Oc2ccc4c(c2)C(=O)N(C2CCC(=O)NC2=O)C4)C3)CC1 (stereo not drawn) [Compound D107]	< 0.01	–
COc1cc(-c2cn(C)c(=O)c3cnc(C4COC4)cc23)cc(OC)c1CN1CCN(CCC2CCN(c3ccc4c(c3)C(=O)N(C3CCC(=O)NC3=O)C4=O)CC2)CC1 (stereo not drawn) [Compound D308]	–	< 0.01
COc1cc(-c2cn(C)c(=O)c3cnc(N4CC[C@H]4C)cc23)cc(OC)c1CN1CC(CN2CCC3(CC2)CN(c2ccc4c(c2)C(=O)N(C2CCC(=O)NC2=O)C4)C3)C1 (stereo partly drawn) [Compound D212]	–	< 0.01
COc1cc(-c2cn(C)c(=O)c3cnc(N(C)C)cc23)cc(OC)c1CN1CCC2C(C1)CN2c1ccc2c(c1)C(=O)N(C1CCC(=O)NC1=O)C2=O (stereo not drawn) [Compound D93]	< 0.01	–
[2H]C([2H])([2H])n1cc(-c2cc(OC)c(CN3CCC4(CC3)CN(c3ccc5c(c3)C(=O)N(C3CCC(=O)NC3=O)C5)C4)c(OC)c2)c2cc(C3CC3)ncc2c1=O (stereo not drawn) [Compound D233]	–	< 0.01

Source: patent US12391686B2, “Compounds and uses thereof” (Foghorn Therapeutics Inc., priority 2019, dated 2025)
